Assay results taken from patent US7598269B2, “Methods and compositions for treating amyloid-related diseases” (Bellus Health (International) Limited, priority 2003, dated 2009).

Tested on: Aβ peptides
Assay: Short term treatment of TgCRND8 mice: Aβ peptide levels
Assay type: in vivo, Mouse
Conditions: after 14 and 28 days of treatment
Experimental: The short term therapeutic effect of 19 compounds of the invention was studied. These compounds were administered over a 14 or 28 day period at the end of which the levels of Aβ peptides in the plasma and brain of TgCRND8 animals were determined.
Starting at 11 weeks of age (±1 week) animals received daily administration of their respective treatment for a period of 14 or 28 days (groups 2-21), at a dose of 250 mg/kg at 10 ml/kg or of vehicle only (water; group 2) or 1% methyl cellulose only (group 21). The route of administration was subcutaneous for water-soluble compounds and oral for compounds solubilized in methylcellulose 1% (MC 1%). At the end of the treatment periods, plasma and perfused brains were collected for quantification of Aβ levels.
Aβ levels were evaluated in plasma and brain samples by ELISA using Human Aβ40 and Aβ42 Fluorometric ELISA kits from Biosource (Cat. No. 89-344 and 89-348) according to manufacturer's recommended procedures. […] The plate was incubated for 35 minutes at room temperature and the plate was read using a titer plate reader at an excitation wavelength of 460 nm and emission at 560 nm.
Compounds were scored based on their ability to modulate levels of Aβ peptides in the plasma and the cerebral soluble/insoluble levels in the brain. […] The strongest effects are recorded as “+++” or “−−−” while the weakest are shown as “+” or “−”.

## CC(C)(C)NCCCS(=O)(=O)O [Compound BX, 3-(t-butyl)amino-1-propanesulfonic acid]
  levels of Aβ peptides in the plasma: significant increase
